# From US12060388B2, “Cell-penetrating peptides and methods of use thereof” (priority 2018, dated 2024)
# How the values were obtained:
# Assay type in all cases: cell-based
# authentic HPV16 = experiment: Inhibition of authentic HPV16 in HeLa cells, qRT-PCR for viral mRNA; conditions: 14 μM, HPV16 from organotypic raft cultures, qRT-PCR 48 h.p.i.
# Experimental: To measure the inhibition of infection by authentic HPV16, HeLa cells were infected with 5 μL raft-derived HPV16 (obtained from Craig Meyers, Hershey Medical Center) or with HPV16 PsV in the presence and absence of 14 μM P16/16, and total RNA was isolated 48 h.p.i. by using the RNeasy kit following the manufacturer's instructions. RNA was reverse-transcribed into cDNA by iScript cDNA Synthesis kit. The cDNA was quantified in triplicate by using SYBR Green Supermix real-time PCR detection system and primers for HPV16 E7 or HcRed. Actin mRNA were used for normalization.
# [1] = tested on: retromer subunit VPS35 / HPV16 L1; experiment: Proximity ligation assay for HPV16 L1 and VPS35 in peptide-treated infected cells; conditions: 14 μM, MOI of 200, eight h.p.i.
# Experimental: FIG. 19A depicts uninfected HeLa cells were incubated with 14 μM bP16/16 or bPDM/16 for three hours (“b” refers to peptides with an N-terminal biotin moiety). Cells were then fixed, permeabilized, and stained with AlexaFluor-streptavidin (green) and with anti-VPS35 (red). Overlapping signal is pseudocolored yellow. Nuclei were stained blue with DAPI. Mander's correlation coefficients for overlap between streptavidin and VPS35 staining are shown at right, with each spot representing an individual cell. Approximately 100 cells were analyzed for each condition. […] Images were processed by Fiji and quantitatively analyzed by BlobFinder software to measure total fluorescence intensity per cell in each sample. […]
# For the proximity ligation assay, after an hour incubation with peptides, HeLa-S3 cells were infected with wild-type PSV at MOI of 200 or mutant PsV containing the same number of reporter plasmid genomes. […] The nuclei were stained by using Abcam fluorescence mounting medium with DAPI and images were acquired by a Leica SP5 inverted fluorescence microscope. […] The images were processed by Fiji and quantitatively analyzed by BlobFinder software to measure total fluorescence intensity in each sample. The average fluorescence intensity per cell in each sample was normalized to the control sample as indicated in each experiment. […]
# HPV16 pseudovirus (PsV) = experiment: Peptide inhibition of HPV16 PsV infection of HeLa-S3 cells, flow cytometry for HcRed
# Text: FIG. 18A (top) depicts sequences of L2 peptides. […] Amino acid substitutions in the CPP or RBS mutant peptides are shown in orange and blue, respectively. Bottom: RBS and flanking sequences of indicated HPV L2 proteins or DMT1-II. FIG. 18B depicts an inhibitory dose-response curve for P16/16 peptide. 5×10^4 HeLa-S3 in 24-well plates were pretreated with various concentrations of P16/16 for one hour prior to infection with HPV pseudovirus (PsV) at multiplicity of infection (MOI) of 1. Peptide was left in the medium for the duration of the experiment. Cells were assessed by flow cytometry to determine the fraction of cells expressing reporter protein HcRed at 48 hours post-infection (h.p.i.). […] FIG. 18C depicts 5×10^4 HeLa-S3 in 24-well plates were pretreated with 14 μM of the indicated peptide for one hour, followed by infection with HPV PSV at MOI of one. Peptides were left in the medium for the duration of the experiment. As a control, cells were incubated with the solution used to dissolve peptide. Forty-eight h.p.i., cells were assessed by flow cytometry to determine fraction of cells expressing reporter protein HcRed. […] For the comparison of P16/16 to P16/6A, P16/3R, and PDM/16 for HPV16 PsV, **, p<0.01; ***, p<0.001. […] FIG. 18D depicts inhibition of HPV infection of HaCaT cells. HaCaT keratinocytes were infected at MOI of 1 with HPV16 PsV in the presence and absence of 14 μM P16/16, and infectivity was assessed 48 h.p.i. by flow cytometry for HcRed fluorescence. FIG. 18E depicts inhibition of authentic HPV16. HeLa cells were infected with HPV16 harvested from organotypic cultures of human keratinocytes or with HPV16 PsV in the presence (grey bars) or absence (black bars) of P16/16. Successful infection by HPV16 and HPV16 PsV was assessed by quantitative reverse transcription-PCR (qRT-PCR) for expression of HPV early region and HcRed mRNA, respectively, and normalized to infection by the cognate virus in the absence of peptide. Background signal determined with non-cognate primers was <0.01%.
# To assess the effect of peptides on viral infection, 5×104 HeLa-S3 in 24-well plates were pretreated with peptides for one hour, followed by infection with wild-type HPV PsV at 37° C. at MOI of ˜1 or with mutant PsV containing an equivalent number of encapsidated reporter plasmids. Peptides were left in the medium for the duration of the experiment unless otherwise indicated. As a control, cells were incubated with the solution used to dissolve peptide. Cells were assessed by flow cytometry on a Stratedigm-13 flow cytometer to determine reporter protein expression at 48 h.p.i. unless otherwise indicated. In some experiments, peptides were added at various times after infection and were left in the medium for the duration of the experiment.
# HeLa-S3 cells = experiment: CellTiter-Fluor viability assay; conditions: 14 μM for 4 or 24 hours
# Experimental: HeLa-S3 cells were incubated with medium, medium plus vehicle, or medium plus 14 μM P16/16 for 4 or 24 hours. Viability assay was performed by using the CellTiter-Fluor viability assay protocol (Promega, Cat #G6082). Briefly, an equal volume of CellTiter-Fluor reagent was added to each well without removing the medium, mixed briefly, then incubated for one hour at 37° C. Fluorescence was measured by using a GloMax Explorer Multimode Microplate Reader (380-400 nmEx/505 nmEm). n.s., not significant.
compound,measurement,setting,value
CC[C@H](C)[C@H](NC(=O)[C@@H](NC(=O)[C@H](Cc1ccc(O)cc1)NC(=O)[C@H](CCC(N)=O)NC(=O)[C@@H]1CCCN1C(=O)[C@H](CO)NC(=O)[C@@H](N)CS)[C@@H](C)O)C(=O)N[C@H](C(=O)N[C@@H](C)C(=O)N[C@@H](CC(=O)O)C(=O)N[C@@H](C)C(=O)NCC(=O)N[C@@H](CC(=O)O)C(=O)N[C@@H](Cc1ccccc1)C(=O)N[C@@H](Cc1ccc(O)cc1)C(=O)N[C@@H](CC(C)C)C(=O)N[C@@H](Cc1c[nH]cn1)C(=O)N1CCC[C@H]1C(=O)N[C@@H](CO)C(=O)N[C@@H](Cc1ccc(O)cc1)C(=O)N[C@@H](Cc1ccc(O)cc1)C(=O)N[C@@H](CCSC)C(=O)N[C@@H](CC(C)C)C(=O)N[C@@H](CCCNC(=N)N)C(=O)N[C@@H](CCCCN)C(=O)N[C@@H](CCCNC(=N)N)C(=O)N[C@@H](CCCNC(=N)N)C(=O)N[C@@H](CCCCN)C(=O)N[C@@H](CCCNC(=N)N)C(=O)O)[C@@H](C)CC [P16/16],inhibition of authentic HPV16,authentic HPV16,inhibited
same,interaction of retromer with HPV (VPS35/L1 PLA),[1],inhibited the interaction of retromer with HPV
same,time of peptide addition for effective inhibition,HPV16 pseudovirus (PsV); 14 μM peptide added at time of infection or at indicated h.p.i.,needed to be added during the first few hours of infection
same,persistence of inhibition,"HPV16 pseudovirus (PsV); 14 μM peptide left in medium, 48, 72, or 96 h.p.i.",at least 96 h.p.i.
same,inhibition of HPV16 PsV infection,"HPV16 pseudovirus (PsV); 14 μM peptide, MOI of 1, 48 h.p.i.",statistically significant (p<0.01) inhibition
same,infection after removal of peptide,HPV16 pseudovirus (PsV); peptide removed from the medium after 24 hours,infection was not restored over the next three days
same,"reduction in infection, dose-response","HPV16 pseudovirus (PsV); various concentrations of peptide, MOI of 1, 48 h.p.i.",dose-dependent reduction in infection
same,toxicity (morphology and cell viability assay),HeLa-S3 cells,no apparent toxicity
